Assay results as given in publication PMC9207812 (ACS chemical biology, 2022).
No end group written: not given here.

Experiments:
Type in all cases: binding
WDR5 Y260H [1] = biological target: T1, WDR5 Y260H (Homo sapiens, UniProt P61964, Y260H); test: Steady-state fluorescence polarization (FP), Y260H
WDR5 P216L [2] = biological target: T2, WDR5 P216L (Homo sapiens, UniProt P61964, P216L); test: Biolayer interferometry (BLI), P216L; details: for koff: pH 7.5, read-out: koff (dissociation rate constant); for kon: pH 7.5, read-out: kon (association rate constant)
WDR5 D172A [3] = biological target: T3, WDR5 D172A (Homo sapiens, UniProt P61964, D172A); test: Steady-state fluorescence polarization (FP), D172A
WDR5 Y260H [4] = biological target: T1, WDR5 Y260H; test: Biolayer interferometry (BLI), Y260H; details: for koff: pH 7.5, read-out: koff (dissociation rate constant); for kon: pH 7.5, read-out: kon (association rate constant)
WDR5 F133L [5] = biological target: T4, WDR5 F133L (Homo sapiens, UniProt P61964, F133L); test: Biolayer interferometry (BLI), F133L; details: for increase in KD-BLI: F133L versus native WDR5; for koff: pH 7.5, read-out: koff (dissociation rate constant); for kon: pH 7.5, read-out: kon (association rate constant)
WDR5 S218F [6] = biological target: T5, WDR5 S218F (Homo sapiens, UniProt P61964, S218F); test: Biolayer interferometry (BLI), S218F; details: for koff: pH 7.5, read-out: koff (dissociation rate constant); for kon: pH 7.5, read-out: kon (association rate constant)
WDR5 S218F [7] = biological target: T5, WDR5 S218F; test: Steady-state fluorescence polarization (FP), S218F
WDR5 P216L [8] = biological target: T2, WDR5 P216L; test: Steady-state fluorescence polarization (FP), P216L
WDR5 S175L [9] = biological target: T6, WDR5 S175L (Homo sapiens, UniProt P61964, S175L); test: Steady-state fluorescence polarization (FP), S175L
WDR5 S175L [10] = biological target: T6, WDR5 S175L; test: Biolayer interferometry (BLI), S175L; details: for koff: pH 7.5, read-out: koff (dissociation rate constant); for kon: pH 7.5, read-out: kon (association rate constant)
WDR5 D172A [11] = biological target: T3, WDR5 D172A; test: Biolayer interferometry (BLI), D172A; details: for koff: pH 7.5, read-out: koff (dissociation rate constant); for kon: pH 7.5, read-out: kon (association rate constant)
WDR5 F133L [12] = biological target: T4, WDR5 F133L; test: Steady-state fluorescence polarization (FP), F133L

Row | Kd (WDR5 Y260H [1]) | Kd (WDR5 P216L [2]) | koff (WDR5 P216L [2]) | kon (WDR5 P216L [2]) | Kd (WDR5 D172A [3]) | Kd (WDR5 Y260H [4]) | koff (WDR5 Y260H [4]) | kon (WDR5 Y260H [4]) | Kd (WDR5 F133L [5]) | koff (WDR5 F133L [5]) | Kd (WDR5 S218F [6]) | koff (WDR5 S218F [6]) | Kd (WDR5 S218F [7]) | Kd (WDR5 P216L [8]) | Kd (WDR5 S175L [9]) | Kd (WDR5 S175L [10]) | koff (WDR5 S175L [10]) | Kd (WDR5 D172A [11]) | koff (WDR5 D172A [11]) | Kd (WDR5 F133L [12]) | Compound | further results
1 | 23 ± 2 nM | 370 ± 40 nM | 0.03 ± 0.005 s⁻¹ | 80000 ± 8000 M⁻¹ s⁻¹ | 18 ± 1 nM | 230 ± 10 nM | 0.023 ± 0.003 s⁻¹ | 100000 ± 10000 M⁻¹ s⁻¹ | 6000 nM | 0.24 ± 0.02 s⁻¹ | 360 ± 20 nM | 0.023 ± 0.002 s⁻¹ | 37 ± 1 nM | 28 ± 2 nM | 11 ± 1 nM | 56 ± 3 nM | 0.0049 ± 0.0003 s⁻¹ | 260 ± 10 nM | 0.023 ± 0.003 s⁻¹ | 820 ± 30 nM | CC(C)[C@H](NC(=O)[C@H](Cc1c[nH]cn1)NC(=O)[C@@H](N)CCC(=O)O)C(=O)N[C@H](C(=O)NCC(=O)N[C@@H](CS)C(=O)N[C@@H](C)C(=O)N[C@@H](CCCNC(=N)N)C(=O)N[C@@H](CO)C(=O)N[C@@H](CCC(=O)O)C(=O)NCC(=O)N[C@@H](Cc1ccccc1)C(=O)N[C@@H](Cc1ccc(O)cc1)C(=O)N[C@H](C(N)=O)[C@@H](C)O)[C@@H](C)O [SETd1BWin] | increase in KD-BLI (WDR5 F133L [5]): between one and two orders of magnitude; kon (WDR5 F133L [5]): 43000 ± 12000 M⁻¹ s⁻¹; kon (WDR5 S218F [6]): 63000 ± 6000 M⁻¹ s⁻¹; kon (WDR5 S175L [10]): 84000 ± 6000 M⁻¹ s⁻¹; kon (WDR5 D172A [11]): 89000 ± 14000 M⁻¹ s⁻¹
2 | 140 ± 20 nM | 380 ± 20 nM | 0.033 ± 0.004 s⁻¹ | 86000 ± 8000 M⁻¹ s⁻¹ | 61 ± 2 nM | 1100 nM | 0.098 ± 0.029 s⁻¹ | 88000 ± 13000 M⁻¹ s⁻¹ | 30000 nM | 0.69 ± 0.04 s⁻¹ | 830 ± 110 nM | 0.046 ± 0.007 s⁻¹ | 100 ± 10 nM | 39 ± 2 nM | 92 ± 7 nM | 1400 nM | 0.089 ± 0.03 s⁻¹ | 900 ± 240 nM | 0.11 ± 0.03 s⁻¹ | 5700 nM | EHQTGSARSEGYYP-NH2 [SETd1AWin] | increase in KD-BLI (WDR5 F133L [5]): between one and two orders of magnitude; kon (WDR5 F133L [5]): 26000 ± 3000 M⁻¹ s⁻¹; kon (WDR5 S218F [6]): 56000 ± 4000 M⁻¹ s⁻¹; kon (WDR5 S175L [10]): 61000 ± 7000 M⁻¹ s⁻¹; kon (WDR5 D172A [11]): 130000 ± 10000 M⁻¹ s⁻¹
3 | 34 ± 4 nM | 200 ± 50 nM | 0.011 ± 0.002 s⁻¹ | 56000 ± 8000 M⁻¹ s⁻¹ | 25 ± 4 nM | 200 ± 20 nM | 0.013 ± 0.001 s⁻¹ | 66000 ± 9000 M⁻¹ s⁻¹ | 8300 nM | 0.14 ± 0.02 s⁻¹ | 640 ± 20 nM | 0.025 ± 0.002 s⁻¹ | 94 ± 7 nM | 18 ± 3 nM | 11 ± 1 nM | 130 ± 10 nM | 0.0063 ± 0.0001 s⁻¹ | 240 ± 10 nM | 0.014 ± 0.001 s⁻¹ | 2100 nM | INPTGCARSEPKIL-NH2 [MLL2Win] | increase in KD-BLI (WDR5 F133L [5]): between one and two orders of magnitude; kon (WDR5 F133L [5]): 16000 ± 1000 M⁻¹ s⁻¹; kon (WDR5 S218F [6]): 40000 ± 2000 M⁻¹ s⁻¹; kon (WDR5 S175L [10]): 49000 ± 4000 M⁻¹ s⁻¹; kon (WDR5 D172A [11]): 57000 ± 6000 M⁻¹ s⁻¹
4 | 130 ± 10 nM | 9900 nM | 0.22 ± 0.05 s⁻¹ | 19000 ± 3000 M⁻¹ s⁻¹ | 78 ± 3 nM | – | 0.047 ± 0.028 s⁻¹ | 24000 ± 3000 M⁻¹ s⁻¹ | ≥ 100000 nM | > 1 s⁻¹ | 3400 nM | 0.071 ± 0.001 s⁻¹ | 420 ± 40 nM | 690 ± 60 nM | 280 ± 30 nM | 4200 nM | 0.13 ± 0.004 s⁻¹ | 1400 nM | 0.051 ± 0.01 s⁻¹ | 8800 nM | LNPHGAARAEVYLS-NH2 [MLL4Win] | kon (WDR5 S218F [6]): 20000 ± 2000 M⁻¹ s⁻¹; kon (WDR5 S175L [10]): 30000 ± 1000 M⁻¹ s⁻¹; kon (WDR5 D172A [11]): 37000 ± 4000 M⁻¹ s⁻¹
5 | 9700 nM | ≥ 100000 nM | > 1 s⁻¹ | – | 5600 nM | ≥ 100000 nM | > 1 s⁻¹ | – | – | – | ≥ 100000 nM | > 1 s⁻¹ | 8100 nM | > 14600 nM | 4800 nM | ≥ 100000 nM | > 1 s⁻¹ | ≥ 100000 nM | > 1 s⁻¹ | > 53000 nM | LNPHGSARAEVHLS-NH2 [MLL1Win] | –
6 | 22 ± 2 nM | 200 ± 30 nM | 0.011 ± 0.003 s⁻¹ | 53000 ± 7000 M⁻¹ s⁻¹ | 12 ± 1 nM | 110 ± 20 nM | 0.0077 ± 0.0006 s⁻¹ | 64000 ± 2000 M⁻¹ s⁻¹ | 3700 nM | 0.1 ± 0.01 s⁻¹ | 530 ± 20 nM | 0.021 ± 0.003 s⁻¹ | 80 ± 7 nM | 19 ± 1 nM | 23 ± 1 nM | 330 ± 20 nM | 0.016 ± 0.002 s⁻¹ | 140 ± 10 nM | 0.0093 ± 0.0019 s⁻¹ | 1000 nM | VNPTGCARSEPKMS-NH2 [MLL3Win] | increase in KD-BLI (WDR5 F133L [5]): between one and two orders of magnitude; kon (WDR5 F133L [5]): 36000 ± 21000 M⁻¹ s⁻¹; kon (WDR5 S218F [6]): 39000 ± 5000 M⁻¹ s⁻¹; kon (WDR5 S175L [10]): 49000 ± 3000 M⁻¹ s⁻¹; kon (WDR5 D172A [11]): 65000 ± 13000 M⁻¹ s⁻¹
